Test results as given in patent US20160081309A1, “FRUCTOBACILLUS AS A PROBIOTIC FOR HONEYBEES” (Indiana University Research & Technology Corporation, priority 2014, published 2016).

Tests used:
Fructobacillus sp. = assay: Antibiotic sensitivity test, soft agar overlay with antibiotic discs; type: cell-based; settings: Fructobacillus soft MRS agar overlay, disc content 5-30 mcg as given per antibiotic; for Zone of Inhibition: BBL Sensi-Disc
Method: Evolutionary analyses were conducted in MEGA6 using the 16S rRNA gene sequences and using a Maximum Likelihood method based on the General Time Reversible Model with a gamma distribution, invariable sites and 100 bootstrap replicates (Tamura et al. (2013) Mol Biol Evol, 30:2725-2729). For antibiotic sensitivity tests, overnight cultures of Fructobacillus sp. were mixed with soft MRS agar and overlayed onto MRS plates onto which an antibiotic impregnated disc had been placed. Diameters of zones of inhibition were measured around each antibiotic disc using a ruler. Antibiotics used were BBL Sensi-Disc tetracycline 30 mcg, ampicillin with sulbactam 20 mcg, rifampin 5 mcg, ciprofloxacin 5 mcg, and vancomycin 30 mcg.
Honey bees are commonly prophylactically treated with oxytetracycline for the prevention of foulbrood diseases caused by the bacteria Melissococcus plutonius and Paenibacillus larvae. […] The bacterial strain's resistance to antibiotics was determined, as treatment might alter the abundance of Fructobacillus in the hive. Using soft agar overlays, Fructobacillus cultures were exposed to five different antibiotics (tetracycline, ampicillin (with sulbactam), rifampicin, ciprofloxacin, and vancomycin), and the resulting zones of inhibition were measured (Table 3). […] These two antibiotics are commonly used in agriculture.

Fructobacillus FJL = assay: Carbon source utilization assay (Biolog MT2 plates); type: cell-based; settings: 2% carbohydrate, Biolog MT2, 30° C. aerobic; versus water-only controls, unpaired t-test p≦0.001
Method: The same Fructobacillus isolate as used for co-culture assays was grown for 72 hours in MRS broth at 30° C. under aerobic conditions. Cells were pelleted via centrifugation and the supernatant was removed. The pellet was resuspended in a buffer of 0.1M Tris-HCl (pH 6.5). This centrifugation and resuspension process was performed twice to ensure removal of all residual MRS. 15 μl of cell suspension was added to each well of a Biolog MT2 plate (Biolog Inc.). To this, 150 μl of 2% carbohydrate solutions were added to the wells, with each carbohydrate repeated in triplicate. Additionally, water control wells were established in triplicate, inoculated with cell suspension and filtered, autoclaved water. […] Plates were read via spectrophotometry at A590 immediately following inoculation in order to establish as baseline. Plates were incubated aerobically at 30° C., and A590 readings were taken every 24 hours. […] To assess whether a carbon source was utilized, absorbance readings from time points with peak absorbance were compared to absorbance of the initial time point. Absorbance in water control wells was subtracted from absorbance in carbohydrate containing wells. […] A carbon source was determined to have been utilized by Fructobacillus if the difference was statistically significant with a p-value of 0.001 or lower.

Question: Which “Zone of Inhibition” value (Fructobacillus sp.) does the source give for `O=C(O)c1cn(C2CC2)c2cc(N3CCNCC3)c(F)cc2c1=O` [Ciprofloxacin] here?
Answer: 9 mm

Question: And the “Interpretation (antibiotic sensitivity)” value (Fructobacillus sp.)?
Answer: Resistant

Question: Which results are given for `CO[C@H]1/C=C/O[C@@]2(C)Oc3c(C)c(O)c4c(O)c(c(/C=N/N5CCN(C)CC5)c(O)c4c3C2=O)NC(=O)/C(C)=C\C=C\[C@H](C)[C@H](O)[C@@H](C)[C@@H](O)[C@@H](C)[C@H](OC(C)=O)[C@@H]1C` [Rifampin]?
Answer: Zone of Inhibition (Fructobacillus sp.): 25 mm; Interpretation (antibiotic sensitivity) (Fructobacillus sp.): Susceptible

Question: For `CN(C)[C@@H]1C(O)=C(C(N)=O)C(=O)[C@@]2(O)C(O)=C3C(=O)c4c(O)cccc4[C@@](C)(O)[C@H]3C[C@@H]12` [Tetracycline], which “Zone of Inhibition” value (Fructobacillus sp.) is on record?
Answer: 32 mm

Question: What does the source list for `CN[C@H](CC(C)C)C(=O)N[C@H]1C(=O)N[C@@H](CC(N)=O)C(=O)N[C@H]2C(=O)N[C@H]3C(=O)N[C@H](C(=O)N[C@H](C(=O)O)c4cc(O)cc(O)c4-c4cc3ccc4O)[C@H](O)c3ccc(c(Cl)c3)Oc3cc2cc(c3O[C@@H]2O[C@H](CO)[C@@H](O)[C@H](O)[C@H]2O[C@H]2C[C@](C)(N)[C@H](O)[C@H](C)O2)Oc2ccc(cc2Cl)[C@H]1O` [Vancomycin]?
Answer: Zone of Inhibition (Fructobacillus sp.): 0 mm; Interpretation (antibiotic sensitivity) (Fructobacillus sp.): Resistant

Question: With `O=C(CO)[C@@H](O)[C@H](O)[C@H](O)CO` [fructose] as the compound, how does the “Utilization of carbon source by Fructobacillus” value (Fructobacillus FJL) read?
Answer: capable of utilizing
